Experimental data: the CheMixHub viscosity set
Values joined by “and” are separate entries in the source; they are usually repeats but may differ in a detail not shown here. Equal values may be shown once.

Test: xn = mol fraction of the nth substance listed

NC(=O)C[C@H](N)C(=O)O + O
viscosity, 101 kPa
Conditions	x1 = 0.00045	x1 = 0.0009	x1 = 0.001	x1 = 0.00135	x1 = 0.001798	x1 = 0.002247	x1 = 0.002695	x1 = 0.003
293.15 K	1.01 mPa·s	1.018 mPa·s	1.015 mPa·s	1.025 mPa·s	1.033 mPa·s	1.041 mPa·s	1.049 mPa·s	1.033 mPa·s
298.15 K	0.8972 mPa·s	0.9037 mPa·s	0.9105 mPa·s	0.9104 mPa·s	0.917 mPa·s	0.9236 mPa·s	0.9301 mPa·s	0.9306 mPa·s
303.15 K	0.8033 mPa·s	0.8089 mPa·s	0.8147 mPa·s	0.8146 mPa·s	0.8202 mPa·s	0.8258 mPa·s	0.8314 mPa·s	0.8318 mPa·s and 0.8318 mPa·s
308.15 K	0.7243 mPa·s	0.7292 mPa·s	0.734 mPa·s and 0.734 mPa·s	0.734 mPa·s	0.7388 mPa·s	0.7436 mPa·s	0.7484 mPa·s	0.7488 mPa·s
313.15 K	0.6573 mPa·s	0.6615 mPa·s	0.6657 mPa·s	0.6657 mPa·s	0.6699 mPa·s	0.674 mPa·s	0.6782 mPa·s	0.6785 mPa·s
318.15 K	0.6013 mPa·s	0.605 mPa·s	0.6087 mPa·s	0.6087 mPa·s	0.6123 mPa·s	0.6159 mPa·s	0.6195 mPa·s	0.6198 mPa·s

Nc1ncnc2[nH]cnc12 + O
viscosity [mPa·s], 101.3 kPa
Conditions	293.15 K	298.15 K	303.15 K	308.15 K	313.15 K	318.15 K
x1 = 9.33e-05	1.006	0.895	0.803	0.738	0.623	0.595
x1 = 0.0001925	1.009	0.898	0.806	0.741	0.626	0.598
x1 = 0.0002792	1.011	0.9	0.808	0.743	0.628	0.6
x1 = 0.0003724	1.013	0.902	0.81	0.745	0.63	0.602
x1 = 0.0004489	1.015	0.904	0.812	0.747	0.632	0.604
x1 = 0.0005443	1.017	0.906	0.814	0.749	0.634	0.606

O=[PH2][O-].[Na+] + O
Conditions	viscosity [mPa·s]
298.15 K, 101 kPa, x1 = 0.2095	4.83

O=c1[nH]c2nc(O)nc(O)c2[nH]1 + O
viscosity [mPa·s], 101.3 kPa
Conditions	298.15 K	303.15 K	308.15 K	313.15 K
x1 = 1e-06	0.9	0.82	0.73	0.63
x1 = 2e-06	0.9	0.83	0.75	0.65
x1 = 3e-06	0.91	0.84	0.76	0.66

[Cl-].[Cl-].[Mn+2] + O
Conditions	viscosity [mPa·s]
298.15 K, 101.33 kPa, x1 = 0.09931	8.35

[K+].[OH-] + O
323.15 K, 101 kPa
Conditions	viscosity [mPa·s]
x1 = 0.009	0.586
x1 = 0.026	0.67
x1 = 0.059	0.853
x1 = 0.08	1.01
x1 = 0.1	1.26
x1 = 0.2	1.75
x1 = 0.21	2.84
x1 = 0.3	4.62

O=C(O)c1ccco1 + O=C1CCCCCN1
101 kPa, x2 = 0.5
Conditions	viscosity [mPa·s]
303.1 K	179.6
313.2 K	79.63
323.1 K	44.44

Cn1c(=O)c2c(ncn2C)n(C)c1=O + OCCO
viscosity [mPa·s], 100 kPa
Conditions	293.15 K	298.15 K	303.15 K	308.15 K	313.15 K	318.15 K	323.15 K
x1 = 0.00056	20.79	16.86	13.79	11.41	9.55	8.092	6.902
x1 = 0.00112	20.75	16.8	13.77	11.36	9.528	8.07	6.89
x1 = 0.00166	20.69	16.76	13.72	11.34	9.492	8.048	6.866
x1 = 0.00222	20.64	16.71	13.67	11.3	9.464	8.019	6.833
x1 = 0.00285	20.57	16.66	13.63	11.27	9.426	7.982	6.805
x1 = 0.00335	20.53	16.63	13.59	11.23	9.403	7.965	6.785

OCCc1ccccc1 + c1ccccc1
293.15 K, 101.32 kPa
Conditions	viscosity [mPa·s]
x1 = 0.01771	0.6624
x1 = 0.04031	0.6965
x1 = 0.0739	0.7584
x1 = 0.1095	0.8402
x1 = 0.1585	0.985
